Data: patent publication US5714516A, “Anti-viral agents” (priority 1992, dated 1998)
Values after ≈ are worked out from the molar mass of the structure shown. “Also recorded” adds a separate entry of the source. Where two headings read alike, the source gives them in different places. Values belong to the molecule of their own block, whether it stands above or below them.

Key:
[1] = test system: Varicella zoster virus (VZV); assay: VZV plaque reduction assay in Mewo cells; type: cell-based, varicella zoster virus (VZV) strain H-551; conditions: for Inhibition of VZV (in words): Example 1, 2 to 200 μM
Experimental: (§1) The assay system used was the Mewo cell plaque reduction assay of VZV, C. Grose and P. A. Brunell, Infection & Immunity, 19, 199-203 (1978). […] Compounds were tested at levels from 2 to 200 μM.
(§2) The VZV plaque assay of Example 1 was repeated using a variety of myristic acid analogues. Briefly, sub-confluent Mewo monolayers (Grose and Brunell, 1978, supra) in 24 well plates were infected with approximately 40 P.F.U. (Plaque Forming Units) of cell-free varicella zoster virus (VZV) strain H-551. After an adsorption period of 2 hours the cells were overlaid with 750 μl of MEM (Minimum Essential Medium (Eagle)) supplemented with 2% fetal calf serum and 1% non-essential amino acids. The anti-viral compounds to be tested were solubilized in ethanol, added to final concentrations of 0, 2, 20 or 200 μM and the wells then overlaid with a further 750 μl of MEM supplemented with 2% fetal calf serum, 1% non-essential amino acids and 0.3% agarose. Mock infected wells were also included as controls to test for cytotoxicity. All plates were incubated at 32° C. with 5% CO2. Eight days post infection the monolayers were fixed in 4% formaldehyde and stained with crystal violet.
(§3) The effect of 2-hydroxymyristic acid (2-HM) on VZV or HIV when solubilized in a variety of solvents was observed using the methods approved for the Medical Research Council AIDS Directed Programme as described in H. C. Holmes et al., Antiviral Chem. & Chemother. (1991), 2(5), 287-293, using concentrations of 2 HM from 0.08to 1000 μM. Additionally, back titration assays of HIV were carried out by adding supernatants from treated infected cells to uninfected C8166 cells at increasing dilutions. Assays were scored by recording the presence or absence of syncytium formation.
(§4) Preparation and assay of VZV was carried out as described previously in Examples 1 and 3.
(§5) Stocks of 2-HM were prepared from crystalline solid by dissolving in ethanol or in dimethyl sulphoxide (DMSO) to a concentration of 20 mM to 100 mM, and were stored at -20° C. prior to addition to culture media.

Mewo cells = assay: in vitro; parameters: Toxicity in Mewo Cells: key to the marks not given beside the values
Experimental: as §1, §2, §4

MRC5 monolayer = assay: Total protein synthesis by incorporation of 35S methionine in infected MRC5 cells (cytotoxicity); type: cell-based
Experimental: (§6) Cytotoxicity was assessed by the incorporation of radiolabelled precursors to assay protein synthesis and myristoylation in the infected cell.

in vitro = assay: in vitro; parameters: Toxicity in Mewo Cells: key to the marks not given beside the values; conditions: human, mewo cells
Experimental: as §1, §2, §4

[2] = Crystallisation from aqueous solution / medium; type: physicochemical
[3] = test system: VZV viral antigen synthesis; assay: Synthesis of VZV viral antigen assayed by immunoblotting in infected MRC5 cells; type: cell-based, Varicella zoster virus (VZV)
Experimental: In order to characterise the nature of the antiviral effect, the effect of 2-hydroxymyristic acid on the synthesis of viral antigen was assayed by immunoblotting.

myristoylation = assay: Myristoylation in the infected cell by incorporation of radiolabelled precursors; type: cell-based; conditions: 0.1 to 10×IC50
Experimental: as §6

HIV [4] = assay: HIV virus titration (back titration, syncytium formation in C8166 cells); type: cell-based; conditions: Human immunodeficiency virus 1, C8166; Table 2; Ethanol; Mill Hill
Experimental: as §3
(§7) The HIV assays were performed at three of the MRC approved laboratories (Mill Hill, Cambridge and St. Bartholomew's Hospital).
as §5, with “media. Concentrations of 2-HM greater than 80 to 100 μM are imprecise, since 2-HM crystallises from aqueous solutions at such levels.” for “media.”

[5] = Cytotoxicity to C8166 cells in HIV assays; type: cell-based; conditions: human, c8166 cells, Table 2
Experimental: as §3, §7
as §5, with “media. Concentrations of 2-HM greater than 80 to 100 μM are imprecise, since 2-HM crystallises from aqueous solutions at such levels.” for “media.”

C8166 cells = assay: Cytotoxicity to C8166 cells in HIV assays; type: cell-based; conditions: St. Bartholomew's and Mill Hill; only above levels at which 2-HM would crystallise from aqueous solution
Experimental: as §3, §7
as §5, with “media. Concentrations of 2-HM greater than 80 to 100 μM are imprecise, since 2-HM crystallises from aqueous solutions at such levels.” for “media.”

HIV [6] = assay: HIV antigen assay; type: cell-based; conditions: for IC50: Human immunodeficiency virus 1, Table 2
Experimental: as §3, §7
as §5, with “media. Concentrations of 2-HM greater than 80 to 100 μM are imprecise, since 2-HM crystallises from aqueous solutions at such levels.” for “media.”

HIV [7] = conditions: Saermark et al.; Bryant et al.; cited from earlier work
[8] = Human alphaherpesvirus 3, MeWo, 192 h, Table 1, Example 3, solubilized in ethanol, 0, 2, 20 or 200 μM, eight days post infection, Mewo cells, read-out: IC50 Against VZV
[9] = Table 1, Example 3, solubilized in ethanol, 0, 2, 20 or 200 μM, eight days post infection, Mewo cells, read-out: IC50 Against VZV
[10] = Human alphaherpesvirus 3, MeWo, 192 h, read-out: IC50 Against VZV (μM)
[11] = Table 1, Example 3, solubilized in ethanol, 0, 2, 20 or 200 μM, eight days post infection, Mewo cells

IC50 [1, 8]: 56.6 µM
SMILES: CCCCCCCCCCCCCC(=O)NC [myristoylmethylamide, reference compound]

SMILES: CCCCCCCCCCCCC(O)C(=O)O (single isomer, unassigned) [2-hydroxytetradecanoic acid (+)]
Cytotoxicity in the assay (in words) (Mewo cells): failed to be cytotoxic
IC50 [1, 9]: 48.7 µM

IC50 [1, 8]: 4.5 µM
SMILES: O=C(O)C1CO1 (stereo not drawn) [glycidic acid, reference compound]

IC50 [1, 8]: 164 µM
SMILES: CCCCNCCCCCCCCC(=O)O [9-(butylamino)nonanoic acid, reference compound]

SMILES: COCCCCCCCCCCCC(=O)O [12-(methyloxy)dodecanoic acid, reference compound]
IC50 [1, 10]: 17.3 µM

IC50 Against VZV (μM) [1, 11]: unobtainable
SMILES: CCCCCCCCCCCCCC(=O)NCC(OCC)OCC [N-myristoylglycinaldiethylacetal (GoA), N-myristoylglycinaldiethylacetal, reference compound]
Inhibition of VZV (in words) [1]: did not cause 50% inhibition of virus at any concentration tested

SMILES: CCCCCCCCCCCCC(O)C(=O)O (racemic) [2-hydroxymyristic acid]
Total protein synthesis (35S methionine incorporation) (MRC5 monolayer; 1:4 inoculum, 0.1 to 10×IC50): unaffected at any concentration tested
Cellular toxicity (in words) (MRC5 monolayer; up to ten times greater than the IC50): not toxic to cells; also recorded: without producing significant cellular toxicity
Cytotoxicity in the assay (in words) (Mewo cells): failed to be cytotoxic
CC50 (Mewo cells; human, mewo cells): > 200 µM
CC50 (in vitro): > 200 µM
Inhibition of VZV (in words) [1]: showed inhibition at 20 and 200 μM
IC50 ([1]; Human alphaherpesvirus 3, MeWo, 8 μM lower end to 33 μM upper end, read-out: Range of IC50 against VZV over Examples): 8 to 33 µM
IC50 [1, 8]: 21.5 µM
IC50 ([1]; Human alphaherpesvirus 3, MeWo, Table 2, DMSO, St. Bartholomew's, read-out: IC50, VZV plaque reduction): > 200 µM
IC50 ([1]; Human alphaherpesvirus 3, MeWo, Table 2, Ethanol, St. Bartholomew's, read-out: IC50, VZV plaque reduction): 33.1 µM
IC50 ([1]; Human alphaherpesvirus 3, MeWo, read-out: 50% inhibitory concentration (IC50), VZV plaque reduction): 8 µM
Anti-viral effect against VZV (in words) ([1]; solubilised in DMSO): no significant anti-viral effect
Inhibition of VZV replication (in words) ([1]; solubilised in ethanol, St. Bartholomew's Hospital): inhibits the replication
solubility ([2]; aqueous solution, aqueous solutions, read-out: Concentration above which 2-HM crystallises from aqueous solutions): 80 to 100 µM (≈ 19.5 to 24.4 µg/mL)
Crystalline deposits ([2]; at the highest concentration, VZV plaque assay): crystalline deposits were observed
Effect on syncytium formation ([3]; MRC5 monolayers, suggested by results): inhibit syncytium formation
Reduction in viral antigen synthesis ([3]; inoculum one infected to four uninfected cells, three days post-infection, 80 μM (10×IC50)): no reduction in antigen synthesis was apparent
Inhibition of viral antigen synthesis at reduced inoculum ([3]; reduced initial inoculum, harvest time increased, inversely proportional to inoculum): inhibition was apparent
Inhibition of myristoylation (myristoylation): non-specific inhibition of myristoylation
IC50 (HIV [4]): 3.9 µM
CC50 ([5]; DMSO, St. Bartholomew's, read-out: TC50, HIV antigen assay): > 400 µM
CC50 ([5]; Ethanol, Mill Hill, antigen assay, read-out: TC50, HIV antigen assay): 192 µM
CC50 ([5]; Ethanol, Mill Hill, virus titration, read-out: TC50, HIV virus titration): 192 µM
CC50 ([5]; Ethanol, St. Bartholomew's, read-out: TC50, HIV antigen assay): 168 µM
Toxicity to C8166 cells (in words) (C8166 cells): toxicity of 2-HM to C8166 cells was detected
IC50 (HIV [6]; DMSO, St. Bartholomew's): 220 µM
IC50 (HIV [6]; Ethanol, Mill Hill): 2 µM
IC50 (HIV [6]; Ethanol, St. Bartholomew's): 31.4 µM
Anti-viral effect against HIV on re-test (in words) (HIV [6]; ethanol as the solvent, St. Bartholomew's Hospital): a clear anti-viral effect was apparent
Anti-viral effect against HIV (in words) (HIV [6]; solubilised in DMSO, St. Bartholomew's Hospital): lack of any significant anti-viral effect
Inhibition of HIV replication (in words) (HIV [6]; solubilised in ethanol, Mill Hill): inhibits the replication

IC50 [1, 8]: 14.2 µM
SMILES: CCCCCCCCCCCCCCC(O)C(=O)O (stereo not drawn) [2-hydroxypalmitic acid]

SMILES: CCCCCCCCCCCCCCC(Br)C(=O)O (stereo not drawn) [2-bromopalmitic acid]
Toxic at 200 μM (in words) (Mewo cells; Example 3, at 200 μM): toxic at 200 μM
Toxicity in Mewo Cells (Mewo cells; Table 1, Example 3, 0, 2, 20 or 200 μM, eight days post infection): +++
IC50 [1, 10]: 0.89 µM

SMILES: COCCCCCCCCCCCC(=O)O [13-oxamyristic acid]
Inhibition of HIV release from infected cells (in words) (HIV [7]): effective

IC50 Against VZV (μM) [1, 11]: unobtainable
SMILES: CCSCCCCCCCCCCC(=O)O [11-(ethylthio)undecanoic acid, reference compound]

IC50 Against VZV (μM) [1, 11]: unobtainable
SMILES: CCNCCCCCCCCCCC(=O)O [11-(ethylamino)undecanoic acid, reference compound]

IC50 [1, 8]: 14.8 µM
SMILES: CCCCCCCCCCCCC(Br)C(=O)O (stereo not drawn) [2-bromotetradecanoic acid, reference compound]

IC50 [1, 8]: 14.4 µM
SMILES: CCCCCCCCCC(OCC)C(=O)O (stereo not drawn) [2-(ethyloxy)undecanoic acid, reference compound]

SMILES: CCCCCCCCCCCCC(O)C(=O)O (single isomer, unassigned) [2-hydroxytetradecanoic acid (-)]
Cytotoxicity in the assay (in words) (Mewo cells): failed to be cytotoxic
IC50 [1, 9]: 11.5 µM

IC50 Against VZV (μM) [1, 11]: unobtainable
SMILES: CCCCCCCCCCCCC(N=[N+]=[N-])C(=O)O (stereo not drawn) [2-azidotetradecanoic acid, reference compound]
